#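 Cultured in 96-well plates, cells were exposed to test compound for 48 hours across five concentrations. TGI is the concentration that stops growth completely.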
# Experiments:
# Test in all cases: growth of human tumour cells (NCI), 48 h
# NCI-H522 lung = test system: NCI-H522 lung
# NCI/ADR-RES ovarian = test system: NCI/ADR-RES ovarian
# SNB-75 CNS = test system: SNB-75 CNS
# A498 renal = test system: A498 renal
# SW-620 colon = test system: SW-620 colon
# CCRF-CEM leukemia = test system: CCRF-CEM leukemia
# KM12 colon = test system: KM12 colon
# SK-MEL-28 melanoma = test system: SK-MEL-28 melanoma
# MOLT-4 leukemia = test system: MOLT-4 leukemia
# LOX IMVI melanoma = test system: LOX IMVI melanoma
# OVCAR-4 ovarian = test system: OVCAR-4 ovarian
# SF-268 CNS = test system: SF-268 CNS
# SK-MEL-5 melanoma = test system: SK-MEL-5 melanoma
# HT29 colon = test system: HT29 colon
# EKVX NSCLC = test system: EKVX NSCLC
# OVCAR-5 ovarian = test system: OVCAR-5 ovarian
# KM20L2 colon = test system: KM20L2 colon
# HOP-62 NSCLC = test system: HOP-62 NSCLC
# SK-MEL-2 melanoma = test system: SK-MEL-2 melanoma
# RPMI-8226 leukemia = test system: RPMI-8226 leukemia
compound,measurement,setting,value
N=C(N)SCCC(=O)CCSC(=N)N,TGI,NCI-H522 lung,> 100 µM
same,TGI,NCI/ADR-RES ovarian,> 100 µM
same,TGI,SNB-75 CNS,> 100 µM
same,TGI,A498 renal,> 100 µM
same,TGI,SW-620 colon,> 100 µM
same,TGI,CCRF-CEM leukemia,> 100 µM
same,TGI,KM12 colon,> 100 µM
same,TGI,SK-MEL-28 melanoma,> 100 µM
same,TGI,MOLT-4 leukemia,> 100 µM
same,TGI,LOX IMVI melanoma,> 100 µM
same,TGI,OVCAR-4 ovarian,> 100 µM
same,TGI,SF-268 CNS,> 100 µM
same,TGI,SK-MEL-5 melanoma,> 100 µM
same,TGI,HT29 colon,> 100 µM
COc1ccc2c(c1)OCCc1cn[nH]c1-2,TGI,NCI-H522 lung,> 100 µM
same,TGI,NCI/ADR-RES ovarian,> 100 µM
same,TGI,EKVX NSCLC,12.3 µM
same,TGI,SNB-75 CNS,> 100 µM
same,TGI,A498 renal,86.1 µM
same,TGI,SW-620 colon,> 100 µM
same,TGI,CCRF-CEM leukemia,> 100 µM
same,TGI,KM12 colon,> 100 µM
same,TGI,SK-MEL-28 melanoma,> 100 µM
same,TGI,OVCAR-5 ovarian,> 100 µM
same,TGI,KM20L2 colon,> 100 µM
same,TGI,MOLT-4 leukemia,70.4 µM
same,TGI,LOX IMVI melanoma,> 100 µM
same,TGI,OVCAR-4 ovarian,> 100 µM
same,TGI,SF-268 CNS,> 100 µM
same,TGI,SK-MEL-5 melanoma,> 100 µM
same,TGI,HT29 colon,> 100 µM
same,TGI,HOP-62 NSCLC,> 100 µM
same,TGI,SK-MEL-2 melanoma,> 100 µM
COC(=O)C1=C(O)C(C(=O)OC)[C@]2(O)[C@@H](C(=O)OC)[C@H]1C[C@@H](c1ccccc1)[C@@H]2C(=O)OC (stereo partly specified),TGI,NCI-H522 lung,20.6 µM
same,TGI,EKVX NSCLC,53.6 µM
same,TGI,SNB-75 CNS,> 100 µM
same,TGI,A498 renal,35.2 µM
same,TGI,RPMI-8226 leukemia,31.7 µM
same,TGI,CCRF-CEM leukemia,49.3 µM
same,TGI,KM12 colon,25.8 µM
same,TGI,SK-MEL-28 melanoma,64.9 µM
same,TGI,OVCAR-5 ovarian,30.9 µM
same,TGI,MOLT-4 leukemia,55.6 µM
same,TGI,LOX IMVI melanoma,39.3 µM
same,TGI,SF-268 CNS,8.12 µM
same,TGI,HT29 colon,36.7 µM
same,TGI,HOP-62 NSCLC,41.7 µM
same,TGI,SK-MEL-2 melanoma,28.2 µM
O=NN(CCF)C(=O)NC1CC2CCC1C2 (stereo unspecified),TGI,NCI-H522 lung,> 100 µM
same,TGI,NCI/ADR-RES ovarian,> 100 µM
same,TGI,EKVX NSCLC,> 100 µM
same,TGI,SNB-75 CNS,> 100 µM
same,TGI,A498 renal,> 100 µM
same,TGI,RPMI-8226 leukemia,> 87.7 µM
same,TGI,SW-620 colon,> 100 µM
same,TGI,CCRF-CEM leukemia,> 100 µM
same,TGI,KM12 colon,> 100 µM
same,TGI,SK-MEL-28 melanoma,> 100 µM
same,TGI,OVCAR-5 ovarian,> 100 µM
same,TGI,KM20L2 colon,> 100 µM
same,TGI,MOLT-4 leukemia,> 100 µM
same,TGI,LOX IMVI melanoma,> 100 µM
same,TGI,OVCAR-4 ovarian,> 100 µM
same,TGI,SF-268 CNS,> 100 µM
same,TGI,SK-MEL-5 melanoma,> 100 µM
same,TGI,HT29 colon,> 100 µM
same,TGI,HOP-62 NSCLC,97.7 µM
same,TGI,SK-MEL-2 melanoma,> 100 µM
C[S+](C)CC1OC(n2cnc3c(N)ncnc32)C(O)C1O (stereo unspecified),TGI,NCI-H522 lung,> 225 µM
same,TGI,NCI/ADR-RES ovarian,> 225 µM
same,TGI,EKVX NSCLC,> 225 µM
same,TGI,SNB-75 CNS,> 225 µM
same,TGI,A498 renal,> 225 µM
same,TGI,RPMI-8226 leukemia,> 225 µM
same,TGI,SW-620 colon,> 225 µM
same,TGI,CCRF-CEM leukemia,> 225 µM
same,TGI,KM12 colon,> 225 µM
same,TGI,SK-MEL-28 melanoma,> 225 µM
same,TGI,OVCAR-5 ovarian,> 225 µM
same,TGI,KM20L2 colon,> 225 µM
same,TGI,MOLT-4 leukemia,> 225 µM
same,TGI,LOX IMVI melanoma,> 225 µM
same,TGI,OVCAR-4 ovarian,> 225 µM
same,TGI,SF-268 CNS,> 225 µM
same,TGI,SK-MEL-5 melanoma,> 225 µM
same,TGI,HT29 colon,> 225 µM
same,TGI,HOP-62 NSCLC,> 225 µM
same,TGI,SK-MEL-2 melanoma,> 225 µM
CC(C)OP(=O)(OC(C)C)C1=NN(c2ccc([N+](=O)[O-])cc2)C(P(=O)(OC(C)C)OC(C)C)=NN1c1ccc([N+](=O)[O-])cc1,TGI,NCI-H522 lung,> 100 µM
same,TGI,EKVX NSCLC,> 100 µM
same,TGI,RPMI-8226 leukemia,> 100 µM
same,TGI,SW-620 colon,> 100 µM
same,TGI,CCRF-CEM leukemia,> 100 µM
same,TGI,KM12 colon,> 100 µM
same,TGI,SK-MEL-28 melanoma,> 100 µM
same,TGI,OVCAR-5 ovarian,> 100 µM
same,TGI,KM20L2 colon,> 100 µM
same,TGI,MOLT-4 leukemia,> 100 µM
same,TGI,LOX IMVI melanoma,> 100 µM
same,TGI,OVCAR-4 ovarian,> 100 µM
same,TGI,SF-268 CNS,> 100 µM
same,TGI,SK-MEL-5 melanoma,> 100 µM
same,TGI,HT29 colon,> 100 µM
same,TGI,HOP-62 NSCLC,> 100 µM
same,TGI,SK-MEL-2 melanoma,> 100 µM
Cc1ccc(Sc2ccccc2[N+](=O)[O-])cc1,TGI,EKVX NSCLC,> 100 µM
same,TGI,SNB-75 CNS,40.6 µM
same,TGI,A498 renal,> 100 µM
same,TGI,RPMI-8226 leukemia,> 100 µM
same,TGI,SW-620 colon,> 100 µM
same,TGI,CCRF-CEM leukemia,> 100 µM
same,TGI,KM12 colon,> 100 µM
same,TGI,SK-MEL-28 melanoma,60 µM
same,TGI,OVCAR-5 ovarian,> 100 µM
same,TGI,KM20L2 colon,> 100 µM
same,TGI,MOLT-4 leukemia,81.4 µM
same,TGI,LOX IMVI melanoma,> 100 µM
same,TGI,OVCAR-4 ovarian,> 100 µM
same,TGI,SF-268 CNS,> 100 µM
same,TGI,SK-MEL-5 melanoma,30.8 µM
same,TGI,HT29 colon,62.2 µM
same,TGI,HOP-62 NSCLC,> 100 µM
same,TGI,SK-MEL-2 melanoma,> 100 µM
CN(C)CCNC(=O)c1cccc2cc3cc(O)ccc3nc12,TGI,NCI/ADR-RES ovarian,11.4 µM
same,TGI,EKVX NSCLC,5.24 µM
same,TGI,SNB-75 CNS,6.31 µM
same,TGI,A498 renal,2.42 µM
same,TGI,RPMI-8226 leukemia,5.46 µM
same,TGI,SW-620 colon,3.46 µM
same,TGI,CCRF-CEM leukemia,5.44 µM
same,TGI,KM12 colon,10.4 µM
same,TGI,SK-MEL-28 melanoma,4.65 µM
same,TGI,OVCAR-5 ovarian,4.32 µM
same,TGI,KM20L2 colon,8.13 µM
same,TGI,MOLT-4 leukemia,3.17 µM
same,TGI,LOX IMVI melanoma,2.72 µM
same,TGI,OVCAR-4 ovarian,6.58 µM
same,TGI,SF-268 CNS,5.66 µM
same,TGI,SK-MEL-5 melanoma,2.48 µM
same,TGI,HT29 colon,4.95 µM
same,TGI,HOP-62 NSCLC,2.94 µM
same,TGI,SK-MEL-2 melanoma,3.81 µM
O=Nn1c2ccccc2c2cc([N+](=O)[O-])ccc21,TGI,NCI-H522 lung,29.1 µM
same,TGI,NCI/ADR-RES ovarian,74 µM
same,TGI,EKVX NSCLC,36.3 µM
same,TGI,SNB-75 CNS,19.5 µM
same,TGI,A498 renal,26.9 µM
same,TGI,RPMI-8226 leukemia,38.8 µM
same,TGI,SW-620 colon,59.7 µM
same,TGI,CCRF-CEM leukemia,44.5 µM
same,TGI,KM12 colon,42 µM
same,TGI,SK-MEL-28 melanoma,39.3 µM
same,TGI,OVCAR-5 ovarian,47.7 µM
same,TGI,MOLT-4 leukemia,70.9 µM
same,TGI,LOX IMVI melanoma,30.9 µM
same,TGI,OVCAR-4 ovarian,32.1 µM
same,TGI,SF-268 CNS,32.7 µM
same,TGI,SK-MEL-5 melanoma,> 100 µM
same,TGI,HT29 colon,68 µM
same,TGI,HOP-62 NSCLC,25.7 µM
same,TGI,SK-MEL-2 melanoma,96.8 µM

# Source: PubChem BioAssay (NCI)
